# Measured values reported in patent US20080226565A1, “Anticariogenic Proteins & Peptides & Saccharides” (priority 2004, published 2008).
# Key:
# [1] = In-vivo: radiated tooth samples treated with protector, 5 days in the oral cavity, Knoop hardness; design: species or system human; conditions: for delta: change of hardness (increase of depth of penetration): radiation + 5 days in oral cavity, 0.1% fluoride or 4% bisphosphonate e-polylysine with CaCl2 and KH2PO4
# Excerpt: A device is constructed that can contain up to 6 experimental tooth samples for positioning in the oral cavity. […] The construction of the experimental tooths samples is outlined in chapter C.2.“Results; in-vivo experiments”. In the oral cavity, the tooth samples are positioned in the device in such a way that the enamel surfaces are subjected to physical contact with the tongue and are submerged in saliva. […] In experiments where the device is residing a long time period in the oral cavity (5 days and more), a metal network is positioned just above the surface of the experimental teeth, in order to provide support for the bacteria and stimulate it's growth path. It is also possible to measure the residual protection competence by removing the tooth samples from the oral cavity at the end of the selected residence time and treating them with acid under laboratory conditions.
# The device was positioned after the lower jaw in the oral cavity for a period of five days. After removal from the oral cavity, the samples where cleaned and the hardness was measured.
# Tooth samples have been cut in horizontal slices (thickness: 0.3 to 1 mm) with a Leitz 1600 tooth cutter with horizontal cutting blade; the slices are cut manually (with a bore) into small tooth samples that contain a small part of the original tooth surface. The tooth sample is positioned in a small plastic tube, that has been cut from a long plastic tube with 6 mm external diameter. The length of the tube is 3 to 6 mm. The inner part of the tube is filled with a polymer that hardens under light (Photoclearfil Bright; Kuraray). The tooth sample is positioned in the soft polymer inside the tube, in such a way that the original tooth surface is just surfacing above the tube. Finally the polymer is hardened with a light source. The tooth surface is polished with Struers silicon carbid paper (800-4000) and the hardness is measured 5 times on each of the samples under the Letiz Wetzlar microscope (weight on needle: 50 p). Tooth samples with a maximum average depth of penetration of 43 μm are retained for use in the oral cavity.
# Tooth samples have been subjected to a radiation dose that is equal to the amount that is given to patients with oral cancer (20 Gray) and have been sterilized. […] A drop of the solution was positioned on the tooth surface and allowed to reside for a period of 30 minutes at 37 C.; the procedure was repeated after removal of the drop with pressured air. Finally the drop was removed, the tooth was dried on air and fixed to the device. In total six tooth samples have been fixed to the device and positioned in the oral cavity after the lower jaw. It remained in the oral cavity for a period of 5 days (day and night). After completion of the required residence time, the device was removed from the oral cavity and the experimental teeth where separated from the device and washed. The hardness was measured according to the Knoop method, six times on each of the tooth samples.
# B: the stage at which the hardness of the tooth surface has been measured with the Knoop method. (before the treatment; after radiation and before addition of protector formulation to the surface; after addition of protector to the surface of the tooth and after residing five days in the oral cavity).
# B: the stage at which the hardness of the tooth surface has been measured with the Knoop method.
# [2] = In-vivo: residual protection, radiated samples after 5 days in oral cavity treated with acetic acid; design: species or system human
# Excerpt: N: number of tooth samples A: hardness(μm) after radiation and 5 days residence in the oral cavity B: hardness after radiation and 5 days in the oral cavity and treatment with acetic acid
substance,measurement,setting,value
bisphosphonylated epsilon-polylysine [bisphosphonylated e-polylysine],Mean hardness (depth of penetration),"[1]; after protector and 5 days oral cavity, 0.1% NaF or 4% bisphosphonate e-polylysine with CaCl2 and KH2PO4",41.97 μm
same,Mean hardness (depth of penetration),"[1]; after radiation, before addition of protector (baseline of group)",41.02 μm
same,delta: change of hardness,"[1]; after radiation, before addition of the formulation",0.15 μm
same,delta: change of hardness (increase of depth of penetration),[1]; listed as bisphosphonate e-polylysine,1.10 μm
same,delta: change of hardness (increase of depth of penetration),[1]; listed as bisphosphonylated epsilon-polylysine,1.1 μm
same,Mean hardness (depth of penetration),"[1]; start, before treatment (baseline of group)",40.87 μm
same,C: B−A (increase of depth of penetration by acid),"[2]; acetic acid 0.1N, 30 min, 37° C. after 5 days in oral cavity",3.9 μm
same,B: hardness after radiation and 5 days in the oral cavity and treatment with acetic acid,"[2]; acetic acid 0.1N, pH 5, 30 min, 37° C.",44.5 μm
same,A: hardness after radiation and 5 days residence in the oral cavity,[2]; samples later treated with acid,40.6 μm
